Results from PubChem BioAssay (NCI).
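Where inhibition never reached the appropriate level, the endpoint shown equals the highest concentration tested. Otherwise, values were interpolated linearly from a five-concentration, 48-hour dose response in 96-well plates. The concentration for 50% growth inhibition is given as GI50. TGI marks complete inhibition of growth.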

What was measured:
Assay in all cases: DTP human tumour cell line panel, 48 h
[1] = tested on: NCI-H226 lung
[2] = tested on: MCF7 breast
[3] = tested on: SK-MEL-28 melanoma
[4] = tested on: BT-549 breast
[5] = tested on: T-47D breast
[6] = tested on: HS 578T breast
[7] = tested on: MDA-MB-231 breast
[8] = tested on: SNB-75 CNS
[9] = tested on: LOX IMVI melanoma
[10] = tested on: SF-295 CNS
[11] = tested on: SN12C renal
[12] = tested on: OVCAR-3 ovarian
[13] = tested on: NCI/ADR-RES ovarian
[14] = tested on: HT29 colon
[15] = tested on: HL-60(TB) leukemia
[16] = tested on: HCT-116 colon
[17] = tested on: CCRF-CEM leukemia
[18] = tested on: K-562 leukemia
[19] = tested on: TK-10 renal
[20] = tested on: A549 NSCLC
[21] = tested on: A498 renal
[22] = tested on: KM12 colon
[23] = tested on: SW-620 colon
[24] = tested on: SK-MEL-2 melanoma
[25] = tested on: SK-OV-3 ovarian
[26] = tested on: UACC-62 melanoma
[27] = tested on: HOP-62 NSCLC
[28] = tested on: HOP-92 NSCLC
[29] = tested on: DU-145 prostate
[30] = tested on: COLO 205 colon
[31] = tested on: SK-MEL-5 melanoma
[32] = tested on: IGROV1 ovarian
[33] = tested on: UO-31 renal
[34] = tested on: UACC-257 melanoma
[35] = tested on: SF-268 CNS
[36] = tested on: CAKI-1 renal
[37] = tested on: NCI-H460 lung
[38] = tested on: 786-0 renal
[39] = tested on: SF-539 CNS
[40] = tested on: RPMI-8226 leukemia
[41] = tested on: OVCAR-5 ovarian
[42] = tested on: M14 melanoma
[43] = tested on: ACHN renal
[44] = tested on: OVCAR-8 ovarian
[45] = tested on: NCI-H522 lung
[46] = tested on: EKVX NSCLC
[47] = tested on: NCI-H23 lung
[48] = tested on: HCT-15 colon
[49] = tested on: MOLT-4 leukemia
[50] = tested on: SNB-19 CNS
[51] = tested on: U251 CNS
[52] = tested on: MALME-3M melanoma
[53] = tested on: OVCAR-4 ovarian
[54] = tested on: PC-3 prostate
[55] = tested on: MDA-MB-435
[56] = tested on: HCC-2998 colon

SMILES: COc1ccc(-c2cn(-c3ccccc3)c(-c3ccccc3)n2)cc1OC
- GI50 [1]: 15 µM
- TGI [1]: 40.3 µM
- GI50 [2]: 2.72 µM
- TGI [2]: 13.1 µM
- GI50 [3]: 12 µM
- TGI [3]: 26.2 µM
- GI50 [4]: 2.86 µM
- TGI [4]: 18.5 µM
- GI50 [5]: 1.75 µM
- TGI [5]: 20.2 µM
- GI50 [6]: 5.68 µM
- TGI [6]: > 100 µM
- GI50 [7]: 10.8 µM
- TGI [7]: 23.5 µM
- GI50 [8]: 13.6 µM
- TGI [8]: 28.5 µM
- GI50 [9]: 3.08 µM
- TGI [9]: 11.7 µM
- GI50 [10]: 3.5 µM
- TGI [10]: 17.1 µM
- GI50 [11]: 5.2 µM
- TGI [11]: 17.8 µM
- GI50 [12]: 2.2 µM
- TGI [12]: 5.07 µM
- GI50 [13]: 4.01 µM
- TGI [13]: 30.2 µM
- GI50 [14]: 4.5 µM
- TGI [14]: > 100 µM
- GI50 [15]: 2.34 µM
- TGI [15]: 6.7 µM
- GI50 [16]: 2.84 µM
- TGI [16]: 11.9 µM
- GI50 [17]: 2.16 µM
- TGI [17]: 5.98 µM
- GI50 [18]: 3.21 µM
- TGI [18]: > 100 µM
- GI50 [19]: 12.2 µM
- TGI [19]: 26.1 µM
- GI50 [20]: 3.71 µM
- TGI [20]: 16 µM
- GI50 [21]: 18.7 µM
- TGI [21]: 34.8 µM
- GI50 [22]: 2.4 µM
- TGI [22]: 6.41 µM
- GI50 [23]: 3.69 µM
- TGI [23]: 18.5 µM
- GI50 [24]: 7.06 µM
- TGI [24]: 22.5 µM
- GI50 [25]: 7.44 µM
- TGI [25]: 20.9 µM
- GI50 [26]: 10.4 µM
- TGI [26]: 22.6 µM
- GI50 [27]: 4.44 µM
- TGI [27]: 17.9 µM
- GI50 [28]: 1.82 µM
- TGI [28]: 10.8 µM
- GI50 [29]: 2.9 µM
- TGI [29]: 7.92 µM
- GI50 [30]: 2.68 µM
- TGI [30]: 12.3 µM
- GI50 [31]: 8.03 µM
- TGI [31]: 20.7 µM
- GI50 [32]: 2.72 µM
- TGI [32]: 9.3 µM
- GI50 [33]: 2.7 µM
- TGI [33]: 14.4 µM
- GI50 [34]: 4.84 µM
- TGI [34]: 16.8 µM
- GI50 [35]: 3.35 µM
- TGI [35]: 13.5 µM
- GI50 [36]: 11.2 µM
- TGI [36]: 27 µM
- GI50 [37]: 3.57 µM
- TGI [37]: 14.9 µM
- GI50 [38]: 3.56 µM
- TGI [38]: 13.5 µM
- GI50 [39]: 2.14 µM
- TGI [39]: 6.16 µM
- GI50 [40]: 1.31 µM
- TGI [40]: 3.59 µM
- GI50 [41]: 7.33 µM
- TGI [41]: 20.9 µM
- GI50 [42]: 5.69 µM
- TGI [42]: 20 µM
- GI50 [43]: 9.55 µM
- TGI [43]: 21.4 µM
- GI50 [44]: 3.01 µM
- TGI [44]: 10.8 µM
- GI50 [45]: 6.63 µM
- TGI [45]: 19.6 µM
- GI50 [46]: 12.1 µM
- TGI [46]: 29.1 µM
- GI50 [47]: 5.51 µM
- TGI [47]: 25 µM
- GI50 [48]: 2.62 µM
- TGI [48]: 11.2 µM
- GI50 [49]: 2.96 µM
- TGI [49]: 10.9 µM
- GI50 [50]: 7.5 µM
- TGI [50]: 21.1 µM
- GI50 [51]: 2.46 µM
- TGI [51]: 10.6 µM
- GI50 [52]: 9.17 µM
- TGI [52]: 22.7 µM
- GI50 [53]: 10.9 µM
- TGI [53]: 32.9 µM
- GI50 [54]: 5.53 µM
- TGI [54]: 24.7 µM
- GI50 [55]: 2.94 µM
- TGI [55]: 12.5 µM
- GI50 [56]: 6.39 µM
- TGI [56]: 20.7 µM
